Consider 69 compounds from PubChem BioAssay AID624344 (Sanford-Burnham Center for Chemical Genomics, 2012).

Activity calls are given as the source filed them. The rule behind the calls is not given here. Bounds are passed on as bounds.

In one assay the test system is Cytotoxicity. As to the kind of experiment: inhibitors of PAF-induced NFkB signaling in CF airway cells, dose response, cell-based, uHTS hits, panel, cytotoxicity readout (AID 624344). Particulars: CF bronchial epithelial cells, mean of runs.
Test in assay [1]: as above
Particulars: CF bronchial epithelial cells, PAF-induced NFkB reporter inhibition; with PAF, mean of runs.

With `Cc1cccc(N(Cc2cc(=O)[nH]c3ccccc23)C(=O)CCl)c1`, the 50% inhibitory concentration (IC50) (commonly the concentration that gives 50% inhibition) in the assay with Cytotoxicity is 2 µM; in assay [1] it was 1.23 µM.

Take `Cc1ccnc(NC(=O)CCCOc2cc(=O)n(C)c3ccccc23)c1`: the IC50 in the assay with Cytotoxicity was 62.3 µM (inactive); in assay [1], 11.2 µM.

On to `O=C1N(c2ccccc2C(F)(F)F)O[C@]1(c1ccccc1)C1CCCCC1`, for which the IC50 is > 79 µM (inactive) with Cytotoxicity and 10.7 µM in assay [1].

As for `CNc1ccc2ncc(-c3cccc(C(=O)N(C)C)c3)n2n1`, the values for the IC50 (in the assay on Cytotoxicity; in assay [1]) were 53.7 µM (inactive) and 0.169 µM, respectively.

Take `COc1ccc(-c2oc3ccc(-c4ccc(OC)nc4)cc3c2C#CC2(O)CCCCC2)cc1`: the figures for the half-inhibitory concentration (IC50) (in the assay on Cytotoxicity; in assay [1]) were 14.4 µM and 6.05 µM, respectively.

Consider `Cc1ccc(CCC(=O)Nc2ncc(Cc3cccc(Cl)c3Cl)s2)o1`, for which the 50% inhibitory concentration (IC50) was 19.1 µM in the assay with Cytotoxicity and 8.87 µM in assay [1].

As to `Cc1ccc2[nH]cc(C(=O)CCl)c2c1`, the IC50 is 4.07 µM in the assay with Cytotoxicity and 2.32 µM in assay [1].

For `Cc1c(C(=O)OC2CCCC2)[nH]c2c1C(=O)CC(c1ccco1)C2` (stereo not drawn), the half-maximal inhibitory concentration (IC50) in the assay with Cytotoxicity is 46.3 µM. Further, the IC50 result in assay [1] is “inactive”.

With `CCOC(=O)C1(C(=O)OCC)COC(=O)C1CN1Cc2cc3ccccc3nc2C1` (stereo not drawn), the IC50 with Cytotoxicity was 11.1 µM; in assay [1], 7.48 µM.

Regarding `COc1ccc(CN(C)C(=O)c2cc(-c3ccc(C)cc3C)nc3ccccc23)c(OC)c1OC`, the IC50 with Cytotoxicity is 7.07 µM; in assay [1] it was 6.52 µM.

Consider `COc1cccc(-c2ccc3ncnc(NCc4cc(C)cs4)c3c2)c1`, for which the concentration for half-maximal inhibition (IC50) is 26.9 µM in the assay on Cytotoxicity and 3.86 µM in assay [1].

For the compound `COc1ccc(C[C@H]2NC[C@H](O)[C@H]2OC(C)=O)cc1`, the half-inhibitory concentration (IC50) with Cytotoxicity is 0.799 µM; in assay [1] it was 0.155 µM.

On to `O=[N+]([O-])c1cc([N+](=O)[O-])c2oc(-c3ccccc3)c(Br)c2c1O`, for which the IC50 in the assay with Cytotoxicity is 4.56 µM; in assay [1] it was 2.3 µM.

On to `O=C(Nc1cccc(S(=O)(=O)N2CCCCC2)c1)Nc1ccc(Cl)cc1Cl`, for which the IC50 is 10.6 µM with Cytotoxicity and 8.83 µM in assay [1].

In the case of `O=S(=O)(Nc1cccc2cccnc12)c1ccccc1`, the half-inhibitory concentration (IC50) with Cytotoxicity was 44.5 µM; in assay [1] it was 1.69 µM.

In the case of `Cc1cc(C)c2nc(C(F)(F)F)c(C#N)c(N)c2c1`, the results for the IC50 (in the assay on Cytotoxicity; in assay [1]) were 24.6 µM and 0.827 µM, respectively.

Take `C[C@@H]1C[C@@H]([C@H](O)CC2CC(=O)NC(=O)C2)C(=O)[C@@H](C)C1`: the concentration for half-maximal inhibition (IC50) was 11.6 µM in the assay on Cytotoxicity and 0.46 µM in assay [1].

In the case of `Cc1nc(N2CCC(C(N)=O)CC2)c2c(-c3cccs3)csc2n1`, the IC50 in the assay on Cytotoxicity is 33.5 µM; in assay [1], 3.23 µM.

Consider `Cc1cccc(NC(=O)Nc2ccc(C#N)cc2)n1`, for which the half-inhibitory concentration (IC50) in the assay with Cytotoxicity was 20.6 µM; in assay [1], 1.78 µM.

Turning to `c1csc(Cc2nn3c(-c4ccncc4)nnc3s2)c1`, the IC50 was 57 µM (inactive) with Cytotoxicity and 7.94 µM in assay [1].

As to `CCC(Oc1ccccc1)C(=O)Nc1ncc([N+](=O)[O-])s1` (stereo not drawn), the concentration for half-maximal inhibition (IC50) was 31 µM in the assay with Cytotoxicity and 9.05 µM in assay [1].

With `Cc1ccc(NC(=O)/C=C/c2ccco2)nc1`, the IC50 in the assay with Cytotoxicity was > 79 µM (inactive); in assay [1], 8.27 µM.

As for `COc1ccc(NC(=O)Nc2nnc(-c3ccncc3)s2)cc1`, the IC50 in the assay on Cytotoxicity was 64.7 µM (inactive); in assay [1], 5.6 µM.

As to `CCc1c(C)nc2ccc(Br)cc2c1SCCC#N`, the half-inhibitory concentration (IC50) was 24.8 µM in the assay on Cytotoxicity and 3.12 µM in assay [1].

As for `COc1cc(C(=O)c2cc3c(cc2C)OCO3)cc(OC)c1OC`, the values for the concentration for half-maximal inhibition (IC50) (with Cytotoxicity; in assay [1]) were 44.5 µM and > 79 µM (inactive), respectively.

For `FC(F)(F)c1nnc2c(Sc3ccccc3)nc3ccccc3n12`, the IC50 in the assay on Cytotoxicity was 3.54 µM; in assay [1] it was 2.76 µM.

`O=C1NC(=S)N/C1=C/c1cccnc1`: the 50% inhibitory concentration (IC50) with Cytotoxicity is 41.8 µM; in assay [1], 5.96 µM.

Take `COc1ccc(N(Cc2cc(=O)[nH]c3ccccc23)C(=O)CCl)cc1`: the results for the IC50 (with Cytotoxicity; in assay [1]) were 4.29 µM and 2.89 µM, respectively.

In the case of `NC(=O)N/N=C/c1c(Sc2nnnn2-c2ccccc2)nc2ccccn2c1=O`, the IC50 in the assay with Cytotoxicity was 6.87 µM; in assay [1] it was 0.653 µM.

As for `CCCCCCc1cc2cc(C(=O)Nc3ccccc3OC)c(=O)oc2cc1O`, the half-maximal inhibitory concentration (IC50) in the assay on Cytotoxicity is 49.4 µM. In assay [1], the IC50 entry is “inactive”.

With `CC(=O)OCCN1c2ccccc2Sc2cnccc21`, the IC50 in the assay on Cytotoxicity is 63.5 µM (inactive); in assay [1], 4.33 µM.

Regarding `O=S(=O)(Nc1nc2ccccc2nc1N1CCN(c2ccccc2F)CC1)c1ccc(Cl)cc1`, the IC50 in the assay with Cytotoxicity is 10.5 µM; in assay [1] it was 5.66 µM.

`O=S(=O)(CC(CN1CCCC1)N1CCCC1)c1ccc2ccccc2c1` (stereo not drawn): the half-maximal inhibitory concentration (IC50) in the assay on Cytotoxicity was 2.35 µM; in assay [1], 1.46 µM.

Consider `Cc1ccc2nc(SCC(=O)Nc3cc(C(F)(F)F)ccc3N3CCOCC3)[nH]c2c1`, for which the IC50 with Cytotoxicity is 60.8 µM (inactive). For the same compound, the IC50 entry in assay [1] is “inactive”.

With `Nc1nccc(SCc2ccc(Cl)cc2Cl)n1`, the IC50 in the assay on Cytotoxicity was > 79 µM (inactive); in assay [1], 14.3 µM.

As for `FC(F)(F)c1nnc2c(Sc3ccc(Cl)cc3)nc3ccccc3n12`, the figures for the IC50 (in the assay with Cytotoxicity; in assay [1]) were 1.03 µM and 0.859 µM, respectively.

In the case of `COc1cc(/C=N/NC(=O)Nc2cccc3nsnc23)cc(OC)c1OC`, the IC50 in the assay on Cytotoxicity is 14.7 µM; in assay [1], 2.53 µM.

Regarding `CN(C)CCCN(C(=O)CCOc1ccccc1)c1nc2c(F)cccc2s1`, the IC50 with Cytotoxicity is 24.6 µM; in assay [1], 5.63 µM.

Consider `CCOC(=O)COc1ccc2ccccc2c1/C=C/[N+](=O)[O-]`, for which the IC50 was 4.6 µM in the assay on Cytotoxicity and 8.1 µM in assay [1].

For the compound `COc1ccc(-c2cn[nH]c2-c2ccc(O)cc2O)cc1`, the values for the IC50 (in the assay with Cytotoxicity; in assay [1]) were > 79 µM (inactive) and 1.76 µM, respectively.

Consider `C=C(C)[C@@H]1CC[C@]2(C(=O)O)CC[C@]3(C)[C@H](CC[C@@H]4[C@@]5(C)CC[C@H](O)C(C)(C)[C@@H]5CC[C@]43C)[C@@H]12`, for which the IC50 in the assay on Cytotoxicity is 42.2 µM. In addition, the IC50 result in assay [1] is “inactive”.

Turning to `Cc1nnc(NC(=O)Nc2ccc(Cl)c(Cl)c2)s1`, the IC50 was 15.3 µM in the assay on Cytotoxicity and 2.78 µM in assay [1].

`c1nc(N2CCOCC2)c2c3c(sc2n1)CCCC3`: the IC50 is 62.3 µM (inactive) with Cytotoxicity and 6.88 µM in assay [1].

As for `O=C(NCc1ccco1)c1nc2c(nnn2Cc2ccccc2Cl)c(=O)[nH]1`, the figures for the concentration for half-maximal inhibition (IC50) (with Cytotoxicity; in assay [1]) were 5.1 µM and 1.46 µM, respectively.

Regarding `COc1ccc2cc3c(N)nn(C(=O)Cc4ccccc4OC)c3nc2c1`, the half-inhibitory concentration (IC50) in the assay on Cytotoxicity was 47.4 µM; in assay [1], 2.67 µM.

Regarding `CCOC(=O)c1[nH]c2c(c1C)C(=O)CC(c1ccco1)C2` (stereo not drawn), in the assay on Cytotoxicity, the IC50 is > 79 µM (inactive). For the same compound, in assay [1], the IC50 result was “inactive”.

Regarding `Cn1c(Sc2ccc(Cl)cc2)c(C=O)c2ccccc21`, the concentration for half-maximal inhibition (IC50) is 17.3 µM in the assay on Cytotoxicity and 2.48 µM in assay [1].

`Cc1ccc(NC(=O)c2cc(C(=O)c3cc(Cl)ccc3O)cn(-c3ccc(C)cc3)c2=O)cc1`: the values for the IC50 (in the assay on Cytotoxicity; in assay [1]) were 53 µM (inactive) and 9.4 µM, respectively.

`COC(=O)c1ccc(NC(=O)c2ccccc2NS(=O)(=O)c2ccccc2)cc1`: the IC50 in the assay with Cytotoxicity is 39 µM; in assay [1], 4.53 µM.

Turning to `COc1ccc2ncn(-c3ccccc3)c2c1`, the IC50 in the assay with Cytotoxicity is 60.6 µM (inactive); in assay [1], 5.47 µM.

As for `CCN1CCN(Cc2ccc(NC(=O)c3ccc(C)c(NC(=O)c4ccc5n[nH]nc5c4)c3)cc2C(F)(F)F)CC1`, the values for the half-maximal inhibitory concentration (IC50) (in the assay with Cytotoxicity; in assay [1]) were 33.3 µM and 2.58 µM, respectively.

Turning to `C=CCN1c2ccccc2[C@]23C[C@@H](C(=O)OC)N(C(=O)c4ccc(Br)cc4)C2=NC(C(=O)OC)=C(C(=O)OC)[C@H]13`, the IC50 in the assay with Cytotoxicity is 12.2 µM; in assay [1] it was 9.35 µM.

With `COc1cccc(-c2ccc3ncnc(NCc4cccc(C)c4)c3c2)c1`, the IC50 is 13 µM with Cytotoxicity and 5.66 µM in assay [1].

Consider `COc1ccc2c(c1OC)C(=O)N1c3ccccc3C(=O)N(c3ccccc3)C21` (stereo not drawn), for which the IC50 with Cytotoxicity is 2.94 µM; in assay [1] it was 0.902 µM.

Regarding `COc1cc(CN(C)c2ccc(S(=O)(=O)N3CCCC3)cn2)ccc1OC(F)F`, the IC50 in the assay with Cytotoxicity was > 79 µM (inactive); in assay [1], 0.453 µM.

Turning to `COc1ccc(-c2csc(NC3OC(=O)c4c3ccc(OC)c4OC)n2)cc1OC` (stereo not drawn), the IC50 in the assay on Cytotoxicity was > 79 µM (inactive); in assay [1], 3.12 µM.

For the compound `Cc1ccsc1CN(C)c1ncnc2ccc(-c3ccoc3)cc12`, the figures for the IC50 (in the assay with Cytotoxicity; in assay [1]) were 47 µM and 0.376 µM, respectively.

On to `Cc1cccc(N2CCN(C(=O)CCn3c(=S)[nH]c4cc5c(cc4c3=O)OCO5)CC2C)c1` (stereo not drawn), for which the IC50 in the assay on Cytotoxicity is 18.5 µM; in assay [1], 6.2 µM.

On to `C=C1C(=O)[C@]23C[C@H]1CC[C@H]2[C@]1(C)[C@@H](O)CC[C@@](C)(C(=O)O)[C@H]1C[C@@H]3O`, for which the concentration for half-maximal inhibition (IC50) in the assay with Cytotoxicity was 12.5 µM; in assay [1], 2.04 µM.

Turning to `C[C@H]1CCCC(=O)CCC/C=C/c2cc(O)cc(O)c2C(=O)O1`, the IC50 was 25.9 µM in the assay on Cytotoxicity and 14 µM in assay [1].

`O=Nc1ccc(NO)c2ccccc12`: the values for the IC50 (in the assay on Cytotoxicity; in assay [1]) were 17.4 µM and 7.21 µM, respectively.

For `O=C(Nc1ccc2c(c1)OCCO2)c1cc(-c2ccccn2)nc2ccc(Br)cc12`, the half-inhibitory concentration (IC50) with Cytotoxicity was 49.4 µM. Also, the IC50 entry in assay [1] is “inactive”.

Turning to `CCOC(=O)c1c(C)cc2c(CO)n[nH]c(=O)c2c1C`, the results for the IC50 (in the assay on Cytotoxicity; in assay [1]) were 62.8 µM (inactive) and 6.83 µM, respectively.

Regarding `O=C(NCCC1=CCCCC1)c1coc(=O)c(Br)c1`, the IC50 in the assay with Cytotoxicity was 10.7 µM; in assay [1], 3.01 µM.

In the case of `Cn1c(Oc2ccc(Cl)cc2)c(C=O)c2ccccc21`, the IC50 in the assay on Cytotoxicity is 13.5 µM; in assay [1], 3.96 µM.

With `N#Cc1c(Br)n(C2OC(CO)C(O)C2O)c2ncnc(N)c12` (stereo not drawn), the IC50 in the assay on Cytotoxicity is 3.58 µM; in assay [1] it was 0.444 µM.

As for `O=S(=O)(Nc1ccc(Cl)cc1NS(=O)(=O)c1ccccc1)c1ccccc1`, the results for the half-maximal inhibitory concentration (IC50) (in the assay with Cytotoxicity; in assay [1]) were 40.3 µM and 10 µM, respectively.

Turning to `O=C(Nc1ccc(C(=O)N2CCOCC2)cc1)Nc1cccc(C(F)(F)F)c1`, the IC50 was > 79 µM (inactive) in the assay on Cytotoxicity and 1.69 µM in assay [1].

In the case of `CCN(CC)CCN(C(=O)CCS(=O)(=O)c1ccccc1)c1nc2c(C)cc(C)cc2s1`, the IC50 is 8 µM in the assay with Cytotoxicity and 5.98 µM in assay [1].
